System: embryo insect cells (trichiopusia ni)
Experiment: Toxicity test on embryo insect cells
Type: cell-based
Text: Second, p-dodecanoyl-calix[4]arene has been tested on embryo insect cells (trichiopusia ni). Viability values of more than 80% have been found.

Question: Which Viability does the source give for `CCCCCCCCCCCC(=O)c1cc2c(O)c(c1)Cc1cc(C(=O)CCCCCCCCCCC)cc(c1O)Cc1cc(C(=O)CCCCCCCCCCC)cc(c1O)Cc1cc(C(=O)CCCCCCCCCCC)cc(c1O)C2` [p-dodecanoyl-calix[4]arene] here?
Answer: more than 80%

— US7943175B2, “Calixarene based dispersible colloidal systems in the form of nanoparticles” (Nanoport S.A., priority 2001, dated 2011)
